Data as given in article PMC7764284, “Determination of the Synthetic Cannabinoids JWH-122, JWH-210, UR-144 in Oral Fluid of Consumers by GC-MS and Quantification of Parent Compounds and Metabolites by UHPLC-MS/MS” (International Journal of Molecular Sciences, 2020).

Legend:
[1] = parameters: method as in PMID 21871150; settings: oral fluid; after smoking two types of herbal products; cited from earlier work
[2] = Oral fluid concentration-time course of SCs and metabolites in consumers after smoking self-administration (GC-MS and UHPLC-HRMS); settings: for second peak concentration in OF: after the decrease at 3 h
[3] = consumer smoked JWH-210 3 mg, UHPLC-HRMS
[4] = female, human, po, 3 mg, peak concentration (Cmax) in OF, consumer smoked JWH-210 3 mg, by UHPLC-HRMS, at 20 min
[5] = female, human, po, 3 mg, second peak concentration (Cmax) in OF, consumer smoked JWH-210 3 mg, UHPLC-HRMS, after 2 h

## CCCCCn1cc(C(=O)c2cccc3ccccc23)c2ccccc21 [JWH-018]
[1]
  time of peak OF concentration: 20 min

## Cc1ccc(C(=O)c2cn(CCCC(C)O)c3ccccc23)c2ccccc12 (centres unmarked) [JWH-122 N-(4-OH), (1-(4-hydroxypentyl)-1H-indol-3-yl)(4-methylnaphthalen-1-yl)methanone]
[2]; consumer smoked JWH-122 1 mg, UHPLC-HRMS, between 10 min and 3 h after smoking
  concentration range in OF: 0.29 to 0.36 ng/mL
[2]; female, human, po, 1 mg
  concentration at 20 min: 0.29 ng/mL

## Cc1ccc(C(=O)c2cn(CCCCCO)c3ccccc23)c2ccccc12 [JWH-122 N-(5-OH), (1-(5-hydroxypentyl)-1H-indol-3-yl)(4-methylnaphthalen-1-yl)-methanone]
[2]; consumer smoked JWH-122 1 mg, UHPLC-HRMS
  detection of metabolite in OF: only detected in traces under the LOQ

## CCCCCn1cc(C(=O)c2ccc(C)c3ccccc23)c2ccccc21 [JWH-122, (4-methyl-1-naphthalenyl)(1-pentyl-1H-indol-3-yl)-methanone]
[2]; consumer smoked JWH-122 1 mg, by GC-MS
  second peak concentration in OF: 2.00 ng/mL
[2]; consumer smoked JWH-122 1 mg, by UHPLC-HRMS
  second peak concentration in OF: 1.60 ng/mL
[2]; female, human, po, 1 mg
  Tmax: 20 min
[2]; female, human, po, 1 mg, peak concentration (Cmax) in OF, consumer smoked JWH-122 1 mg, by GC-MS, at 20 min
  Cmax: 4 ng/mL
[2]; female, human, po, 1 mg, peak concentration (Cmax) in OF, consumer smoked JWH-122 1 mg, by UHPLC-HRMS, at 20 min
  Cmax: 3.14 ng/mL

## CCc1ccc(C(=O)c2cn(CCCC(C)O)c3ccccc23)c2ccccc12 (centres unmarked) [JWH-210 N-(4-OH), (4-ethylnaphthalen-1-yl)(1-(4-hydroxypentyl)-1H-indol-3-yl)methanone]
[2]; [3]
  time of second peak concentration: 2 h
[2]; female, human, po, 3 mg
  Tmax: 20 min
[2]; [4]
  Cmax: 0.29 ng/mL
[2]; [5]
  Cmax: 0.98 ng/mL

## CCc1ccc(C(=O)c2cn(CCCCCO)c3ccccc23)c2ccccc12 [JWH-210 N-(5-OH), (4-ethylnaphthalen-1-yl)(1-(5-hydroxypentyl)-1H-indol-3-yl)methanone]
[2]; [3]
  time of second peak concentration: 2 h
[2]; female, human, po, 3 mg
  Tmax: 20 min
[2]; [4]
  Cmax: 0.66 ng/mL
[2]; [5]
  Cmax: 0.61 ng/mL

## CCCCCn1cc(C(=O)c2ccc(CC)c3ccccc23)c2ccccc21 [JWH-210, (4-ethyl-1-naphthalenyl)(1-pentyl-1H-indol-3-yl)-methanone]
[2]; consumer smoked JWH-210 3 mg
  time after which undetectable in OF: 3 h
[2]; female, human, po, 3 mg
  Tmax: 20 min
[2]; female, human, po, 3 mg, peak concentration (Cmax) in OF, consumer smoked JWH-210 3 mg, by GC-MS, at 20 min
  Cmax: 8.1 ng/mL
[2]; [4]
  Cmax: 7.3 ng/mL

## CC1(C)C(C(=O)c2cn(CCCCCO)c3ccccc23)C1(C)C [UR-144 N-(5-OH), [1-(5-hydroxypentyl)-1H-indol-3-yl](2,2,3,3-tetramethylcyclopropyl)-methanone]
[2]; consumer smoked UR-144 1 mg, UHPLC-HRMS, all the time-course
  detection of metabolite in OF: only detected in traces

## CCCCCn1cc(C(=O)C2C(C)(C)C2(C)C)c2ccccc21 [UR-144, (1-pentyl-1H-indol-3-yl)(2,2,3,3-tetramethylcyclopropyl)-methanone]
[2]; consumer smoked UR-144 1 mg
  time peak from smoking start: 20 min
  time to decrease to undetectable values in OF: ≤ 4 h
[2]; male, human, po, 1 mg, Cmax in OF, consumer smoked UR-144 1 mg, by GC-MS, at 20 min
  Cmax: 7.4 ng/mL
[2]; male, human, po, 1 mg, Cmax in OF, consumer smoked UR-144 1 mg, by UHPLC-HRMS, at 20 min
  Cmax: 6.81 ng/mL
